{"source": "patent US20060234276A1", "about": "“Methods of treatment of type 2 diabetes” (priority 1998, published 2006)", "key": {"[1]": {"tested_on": "β-cells", "experiment": "Whole-cell patch-clamp calcium currents in β-cells", "assay_type": "cell-based, mouse", "description": "Isolation of pancreatic β-cells. Single β-cells were obtained from isolated islets dispersed by gentle trituration (120 strokes through a 200 μl pipette tip) in Ca^2+ and Mg^2+-free PBS containing […]. Cells were plated on glass coverslips and maintained in culture in RPMI containing 11.6 mM glucose for 48-96 hr.\nPatch-clamp electrophysiology. Calcium current measurements were obtained in the whole-cell patch-clamp configuration. Calcium currents were activated by step depolarizations to either +10 or +20 mV for either 20 ms or 100 ms, from HP=−80 mV. All current records are corrected for leak and capacitance. The data was filtered at 2 kHz and then sampled every 100 μs. Pipette resistances were 1.5-2.5 MΩ. Series resistance was partially compensated (˜80%) using the compensation circuit of the Axopatch-1C amplifier.\nCells were incubated for 3-4 hr in RPMI at 37° C. in either 0.1% DMSO (control) or 100 μM ALLM and then transferred for a further 1-2 hr to KRB containing similar concentrations of DMSO or ALLM. For recording, cells were bathed in a solution containing (in mM): 145 NaCl, 2 KCl, 1 MgCl2, 2 glucose, 10 HEPES, 10 CaCl2, pH 7.3 (adjusted with NaOH) and either DMSO or ALLM. […]"}, "[2]": {"tested_on": "mouse pancreatic islets", "experiment": "Static incubation of isolated pancreatic islets, insulin secretion", "assay_type": "cell-based", "description": "Static incubation of isolated pancreatic islets. Isolation of mouse pancreatic islets was accomplished using collagenase digestion as previously described (Pontoglio et al., 1998). […] Triplicate groups of 5 islets were then incubated in borosilicate tubes containing 1 ml of KRB with the same concentration of inhibitor and various insulin secretagogues for one hour in a moving water bath at 37° C. The reaction was stopped by placing the tubes on ice and an aliquot of the buffer was removed for measurement of insulin levels. Control studies, in which the incubation mixture contained vehicle (0.1% DMSO) only, were performed using aliquots of the same batch of islets\nAssay methods. Insulin concentrations were measured by a double antibody radioimmunoassay using a rat insulin standard. The intra-assay coefficient of variation for this technique is 7%. All samples were assayed in duplicate."}, "[3]": {"tested_on": "soleus muscle strips", "experiment": "Glycogen synthesis rates in skeletal muscle", "assay_type": "cell-based, rat", "details": "100 μM ALLM or 200 μM E-64-d", "excerpt": "Glycogen synthesis rates in skeletal muscle."}}, "note": "Peptide text beside a SMILES is read from it.", "data": [{"smiles": "CSCC[C@@H](C=O)NC(=O)[C@H](CC(C)C)NC(=O)[C@H](CC(C)C)NC(C)=O", "note": "[ALLM, N-Ac-Leu-Leu-methioninal] (Ac-Leu-Leu-Met-aldehyde)", "values": [{"measurement": "average peak calcium current density", "setting": "[1]; ALLM 100 μM pre-treated cells, n=15", "result": "36.7±3.9", "unit": "pA/pF"}, {"measurement": "whole-cell calcium currents", "setting": "[1]; ALLM 100 μM pre-treated vs control cells", "result": "similar"}, {"measurement": "insulin secretory response to 30 mM KCl", "setting": "[2]; 100 μM ALLM, 4 hr, 2 mM glucose", "result": "did not however significantly increase"}, {"measurement": "insulin secretory response to 100 μM carbachol (CCh)", "setting": "[2]; 100 μM ALLM, 4 hr, 8 mM glucose", "result": "did not however significantly increase"}, {"measurement": "increase of insulin secretory response to 50 nM GLP-1", "setting": "[2]; 100 μM ALLM, 8 mM glucose", "result": "1.55±0.2", "unit": "fold"}, {"measurement": "insulin secretory response to 20 mM glucose after recovery", "setting": "[2]; 48-h treatment, then 2 days recovery without inhibitor", "result": "essentially normal insulin secretory response"}, {"measurement": "effect on insulin secretion at 2 mM glucose", "setting": "[2]; 4 hr exposure, ALLM 250 μM, E-64-d 200 μM, 2 mM glucose", "result": "not observed"}, {"measurement": "increase of insulin secretory response to 20 mM glucose", "setting": "[2]; 4 hr exposure, ALLM 250 μM, E-64-d 200 μM, 20 mM glucose, mean±SEM", "result": "1.97±0.3", "unit": "fold"}, {"measurement": "inhibition of 20 mM glucose-stimulated insulin secretion", "setting": "[2]; 48 h, 100 μM ALLM (so in the source), 50 μM MDL28170", "result": "88±9", "unit": "%"}, {"measurement": "basal insulin secretion (2 mM glucose) vs control-treated islets", "setting": "[2]; 48 hours exposure", "result": "no significant difference"}, {"measurement": "insulin secretory response to carbachol", "setting": "[2]; 48 h treated islets", "result": "attenuated"}, {"measurement": "insulin secretory response to glyceraldehyde", "setting": "[2]; 48 h treated islets", "result": "responded normally"}, {"measurement": "insulin secretory response to mastoparan", "setting": "[2]; 48 h treated islets", "result": "attenuated"}, {"measurement": "insulin-secretory response to keto-isocaproic acid (KIC)", "setting": "[2]; 48 h treated islets", "result": "decreased"}, {"measurement": "insulin secretory responses to glucose (summary statement of Example 8)", "setting": "[2]; isolated mouse islets, introductory summary, no conditions given", "result": "reduces insulin secretory responses"}, {"measurement": "concentration at which inhibition of insulin secretion was achieved (dose response)", "setting": "[2]; long-term exposure, glucose stimulated insulin secretion", "result": 25, "unit": "µM"}, {"measurement": "magnitude of insulin-induced increase in muscle glycogen synthesis", "setting": "[3]; insulin 6 nM", "result": "0.13±0.03", "unit": "nmol glucose/mg/hr"}, {"measurement": "rate of muscle glycogen synthesis with insulin", "setting": "[3]; insulin 6 nM", "result": "0.40±0.05", "unit": "nmol glucose/mg/hr"}, {"measurement": "rate of muscle glycogen synthesis without insulin", "setting": "[3]; no insulin", "result": "0.27±0.03", "unit": "nmol glucose/mg/hr"}]}]}
